Data taken from PubChem BioAssay AID743396 (Broad Institute, 2014).
Active and inactive are the calls of the source.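 The calls were made as follows: active = fitted curve reaches a 40% rise in fluorescent cells at or below the top valid dose; inactive = opposite-direction effect, or the rest.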

Assay: autofluorescent compounds in non-GFP fibroblasts, dose response, artefact control for X-chromosome reactivation project, imaging, mTEFS fibroblasts, cherry-pick (AID 743396);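 also: raw share of Hoechst-counted cells scored GFP positive without control normalization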
Settings: mTEFS fibroblasts autofluorescence, GFP-channel imaging, 3 days, cells pretreated with 5-aza-dC

SMILES | % fluorescent cells increase (at 19.5 µM (top of the series)) | % fluorescent cells increase (at 21 µM (top of the series))
C[C@H]1CN([C@@H](C)CO)C(=O)c2ccccc2-c2ccccc2CO[C@H]1CN(C)C(=O)[C@@H](Cc1ccccc1)N(C)C | 0% (inactive) | 
F[B-](F)(F)c1cnc2ccccc2c1 | 0.137% (inactive) | 
Cn1cc(C(=O)N/N=C/C(Br)=C/c2ccccc2)ccc1=O | 0% (inactive) | 
CCOC(=O)c1ccc(NC(=O)C2CCC(CNc3c(N4CCOCC4)c(=O)c3=O)CC2)cc1 (stereo not drawn) | 0.105% (inactive) | 
O=C(Nc1c(F)cccc1F)C(c1ccccc1)c1ccccc1 | 0.034% (inactive) | 
COc1ccc2c3c([nH]c2c1)[C@H](CO)N(C(=O)C1CCCC1)CC31CN(Cc2nccs2)C1 | 0.113% (inactive) | 
CCN1C(=O)C(=Cc2cccc(OC)c2Oc2ccc([N+](=O)[O-])cc2[N+](=O)[O-])SC1=S | 1.07% (inactive) | 
COc1ccc(-n2ncc(Cl)c(Cl)c2=O)cc1 | 0% (inactive) | 
O=C(O)c1ccccc1C1Nc2ccccc2C(=O)N1CCCN1CCOCC1 (stereo not drawn) | -0.004% (inactive) | 
COc1ccc(NC(=O)Nc2ccc3c(c2)C(=O)N([C@H](C)CO)C[C@H](C)[C@H](CN(C)Cc2ccc4c(c2)OCO4)O3)cc1 | -0.166% (inactive) | 
CCOc1ccc(NC(=S)NC(C)c2cccs2)cc1 (stereo not drawn) | 0% (inactive) | 
COc1ccccc1-c1ccc(/C=N/O)o1 | 0% (inactive) | 
O=c1c(Cl)c(Cl)cnn1Cc1nnc(-c2ccccc2Br)o1 | -0.006% (inactive) | 
CCOCCCNC(=O)/C(C#N)=C/c1ccc([N+](=O)[O-])o1 | 9.9% (inactive) | 
CC(=O)c1ccc2c(c1)OCCOCCOCCOCCOCCO2 | 0.551% (inactive) | 
CC(=O)c1cccc(-c2ccc3c(c2)C(C)(Cc2ccc(S(C)(=O)=O)cc2)C(=O)N3)c1 (stereo not drawn) | 0% (inactive) | 
CCCCC(=O)N(C)c1c(CC)nc2c(OCC(=O)c3ccc(F)cc3)cccn12 | 3.76% (inactive) | 
NC(=O)c1sc2nc3c(cc2c1N)CCCCCC3 | 0.03% (inactive) | 
CN(C)C(=O)C[C@@H]1C=C[C@H](NS(=O)(=O)c2ccccc2)[C@@H](CO)O1 | 0% (inactive) | 
Cc1nn(-c2ccccc2)c(C)c1N | 0% (inactive) | 
CCC(=O)OCCNc1cc(Sc2nc3ccccc3[nH]2)c2nonc2c1[N+](=O)[O-] | -0.003% (inactive) | 

SMILES | % fluorescent cells increase (at 19.5 µM (top of the series)) | % fluorescent cells increase (at 21 µM (top of the series))
COc1ccc(C2=NOC3(CC(=O)N(c4ccc(F)cc4)C3=O)C2)cc1 (stereo not drawn) | 0.016% (inactive) | 
CCOC(=O)C1=c2/c(=C/c3ccncc3)c(N)c(C(=O)OC)n2C(=O)C(c2ccncc2)S1 (stereo not drawn) | 0.042% (inactive) | 
NNC(=O)c1sc(-c2ccccc2)cc1N | 1.36% (inactive) | 
COc1cc(/C=C/C(=O)c2ccc([N+](=O)[O-])o2)ccc1O | 5.15% (inactive) | 
Cc1cc(N)ncc1[N+](=O)[O-] | 0.218% (inactive) | 
Cc1cc(NC(=O)c2ccccc2)n(-c2nc3ccccc3[nH]2)n1 | 0.023% (inactive) | 
COc1ccc(N(CC(=O)Nc2nccs2)S(=O)(=O)c2c(C)[nH]c(=O)[nH]c2=O)cc1 | 0% (inactive) | 
O=C(O)/C=C/C(=O)Nc1ccc(-n2nccc2C(F)(F)F)cc1 | 1.85% (inactive) | 
COc1ccc2c3c(n(C)c2c1)[C@@H](CO)N(Cc1ccccc1OC)CC31CCN(C)CC1 | -0.158% (inactive) | 
CCCN(C)C[C@@H]1OCc2cnnn2CCCC(=O)N([C@H](C)CO)C[C@H]1C | 0.007% (inactive) | 
COc1ccc(S(=O)(=O)N(C)C[C@@H]2OCc3cn(nn3)CCCC(=O)N([C@@H](C)CO)C[C@@H]2C)cc1 |  | 0.036% (inactive)
COc1ccc(S(=O)(=O)Nc2cccc3c2O[C@H](CN(C)S(=O)(=O)c2cn(C)cn2)[C@H](C)CN([C@H](C)CO)C3=O)cc1 | 0.016% (inactive) | 
O=C(CC1C(=O)Nc2ccccc2N1CC(=O)N1CCCC1)Nc1ccc(Br)cc1 (stereo not drawn) | 0% (inactive) | 
S=C(NCc1ccco1)Nc1cccc(Cl)c1Cl | 0.083% (inactive) | 
COC(=O)C(C(C)C)N1CCc2c(C)nc3c(C#N)cnn3c21 (stereo not drawn) | 0.064% (inactive) | 
CC(=NNc1ccc2ccccc2n1)c1ccccn1 | 15.8% (inactive) | 
Cc1ccc(Nc2nc(N)nc(COC(=O)C3=COCCO3)n2)cc1 | -0.007% (inactive) | 
Cc1ccc(S(=O)(=O)Nc2ccc3c(c2)C(=O)N([C@H](C)CO)C[C@@H](C)[C@@H](CN(C)Cc2ccc(Cl)c(Cl)c2)OCCCC[C@H](C)O3)cc1 | 8.98% (inactive) | 
CC(C)N1CCc2c(sc(NC(=O)c3cc4cc([N+](=O)[O-])ccc4s3)c2C(N)=O)C1 | 0% (inactive) | 
CC(C)Oc1ccc(/C(O)=C2/C(=O)C(=O)N(CCN(C)C)C2c2cccs2)cc1 (stereo not drawn) | 0% (inactive) | 
CC1CCCC(NC(=O)CSc2cccc[n+]2[O-])C1C (stereo not drawn) | 0.029% (inactive) | 

SMILES | % fluorescent cells increase (at 19.5 µM (top of the series)) | % fluorescent cells increase (at 21 µM (top of the series))
CCOC(=O)c1cnc(-c2ccc(C(F)(F)F)cn2)[nH]c1=O | 11.4% (inactive) | 
C=CCNC(=O)N[C@@H](Cc1ccccc1)C(=O)OC | 1.04% (inactive) | 
C[C@@H]1CN([C@@H](C)CO)C(=O)c2cc(NS(=O)(=O)c3ccccc3)ccc2O[C@@H](C)CCCCO[C@@H]1CN(C)Cc1ccc2c(c1)OCO2 | 0% (inactive) | 
CC(=O)N/C(N)=N/c1nc(=O)c2ccccc2s1 | 0.24% (inactive) | 
O=C(N/N=C/c1ccc(O)c2ncccc12)c1cccc(Br)c1 | -0.003% (inactive) | 
CC(=O)c1ccc(NS(=O)(=O)c2ccc(N/C=C/C(=O)c3ccc(F)cc3)cc2)cc1 | 0% (inactive) | 
[N-]=[N+]=CC(=O)C(O)(c1ccccc1)C(Cl)c1ccccc1 (stereo not drawn) | -0.007% (inactive) | 
CCN(CC)CCCN=Cc1c(O)n(-c2cccc(C)c2)c(=O)c2ccccc12 | -0.011% (inactive) | 
O=S(=O)(Nc1cc(Sc2cccc3cccnc23)c(O)c2ccccc12)c1ccccc1 | -0.003% (inactive) | 
C/C=C/Cn1c(SCCCc2ccccc2)nc2c1c(=O)[nH]c(=O)n2C | -0.004% (inactive) | 
CCCCOc1nc2ccccc2nc1NS(=O)(=O)c1ccc(F)cc1 | 0% (inactive) | 
COc1ccccc1/C=C/C(=O)OCCCN(C)C | 0% (inactive) | 
CO[C@H]1CN(C)C(=O)c2ccc(NC(=O)Cc3ccccc3)cc2OC[C@@H](C)N(C)C[C@H]1C | 0% (inactive) | 
CC(C)(C)[S@@](=O)N1Cc2cc(C(=O)N3CCCCC3)nc(-c3cccc(-c4cccc(C#N)c4)c3)c2[C@H]1CCO | 0.101% (inactive) | 
COC(=O)c1ccc(CNC(=O)COC(=O)c2cc(Cl)ccc2O)cc1 | 0% (inactive) | 
COc1cc(/C=N/Nc2nc(N3CCCC3)nc(N3CCCC3)n2)ccc1OCc1ccccc1F | 0.025% (inactive) | 
O=C(COC(=O)c1cc(=O)[nH]c(=O)[nH]1)Nc1cccc(S(=O)(=O)N2CCCCC2)c1 | 0% (inactive) | 
CCOC(=O)Cn1c(=NC(=O)c2ccc([N+](=O)[O-])s2)sc2ccccc21 | 12% (inactive) | 
CC1=Nc2ccccc2/C1=C\c1sc(Nc2ccc(C)cc2)nc1O | 0.199% (inactive) | 
Cc1ccccc1NC(=O)c1cn2c(nc3ccccc32)c(C#N)c1C | 2.44% (inactive) | 
CC(C)NC(=O)N(C)C[C@@H]1OCCCC[C@H](C)Oc2ccc(NC(=O)Nc3ccc(C(F)(F)F)cc3)cc2C(=O)N([C@H](C)CO)C[C@@H]1C | 0% (inactive) | 

SMILES | % fluorescent cells increase (at 19.5 µM (top of the series)) | % fluorescent cells increase (at 21 µM (top of the series))
CCn1nc(C)cc1-c1nnc(Sc2ncc([N+](=O)[O-])s2)n1C | 0% (inactive) | 
Cc1ccc(S(=O)(=O)N2CCOCC2)cc1C(=O)OCC(=O)NC1CCS(=O)(=O)C1 (stereo not drawn) | 0.086% (inactive) | 
Nc1ccc(-c2nc3ccccc3[nH]2)cc1 | 0% (inactive) | 
COc1ccc(NC(=O)C(=O)NCCC2CCCCN2S(=O)(=O)c2cccs2)cc1 (stereo not drawn) | 2.33% (inactive) | 
CC(C)C#Cc1ccc([C@@H]2[C@@H](CO)N3C(=O)CN(C(=O)c4ccc5c(c4)OCO5)C[C@H]23)cc1 | -0.166% (inactive) | 
O=[N+]([O-])c1ccc(Sc2nnnn2-c2ccccc2)nc1 | -0.007% (inactive) | 
CCC(C(=O)Nc1cc(OC)c(NC(=O)c2ccccc2)cc1OC)c1ccccc1 (stereo not drawn) | 0.022% (inactive) | 
CCOC(=O)Cc1csc(NC(=O)Nc2ccc(F)cc2)n1 | 0% (inactive) | 
C[C@H](CO)N1C[C@H](C)[C@H](CN(C)S(=O)(=O)c2ccccc2)Oc2ccc(NS(=O)(=O)c3ccc(Cl)cc3)cc2C1=O | 0.016% (inactive) | 
O=C1C=CC(=O)C(CNc2ccc(C(=O)OCc3ccccc3)cc2)=C1 | 0% (inactive) | 
CC(C)OC(=O)/C(=C\c1cccnc1)NC(=O)c1ccccc1 | 0.013% (inactive) | 
O=C(COC(=O)COc1cccc(C(F)(F)F)c1)NC1CCS(=O)(=O)C1 (stereo not drawn) | 0.015% (inactive) | 
COc1ccccc1CN1CC[C@H]2[C@H](CO)Nc3ccc(C#Cc4ccccc4)cc3[C@H]21 | 0% (inactive) | 
O=C1N[C@H](Cc2ccccc2)COCc2cn(nn2)CC[C@@H]1Cc1ccccc1 | 0.024% (inactive) | 
CCOC(=O)[C@]12CCC=C1N(Cc1ccccc1)C(=O)[C@H](CC(=O)N1CCSCC1)C2 | 0.038% (inactive) | 
COc1cc(/C=C/C(=O)c2ccc3c(c2)OCCO3)cc(Br)c1OCC(=O)N(C)C | 7.79% (inactive) | 
CC(C)(C=O)C1=CC(=O)c2ccccc2C1=O | 0% (inactive) | 
CCCn1c(SCC(=O)NCc2ccc(C)cc2)n[nH]c1=O | -0.007% (inactive) | 
CS(=O)(=O)c1ccc(S(=O)CC(=O)OCc2ccccc2)c([N+](=O)[O-])c1 (stereo not drawn) | 0% (inactive) | 
COc1ccc(OC)c(NC(=O)Nc2ccc3[nH]ccc3c2)c1 | 0% (inactive) | 
